Earlier results on one compound are cited in patent publication US6348220B1, “Phenethylisothiocyanate nutraceutical compositions and methods” (Rutgers, the State University of New Jersey, priority 1999, dated 2002).

For the series, the system named is oxidation of nitrosamines from tobacco. The settings on record: human smokers, PEITC from fresh watercress, urinary metabolites (Hecht et al., 1995).

With `S=C=NCCc1ccccc1` [PEITC, phenethyl isothiocyanate], the “effect on oxidation of nitrosamines from tobacco” value is recorded as “specifically inhibit the oxidation of nitrosamines from tobacco”.
